Tested on: SARS-CoV-2
Test: CPE inhibition of SARS-CoV-2 in VERO-E6 cells
Type: cell-based
Settings: 200 TCID50, 3 days, average of three repeats, FIG. 4

| SMILES | average CPE inhibition value [µg/mL] |
| --- | --- |
| CC(C)C[C@H](NC(=O)OCc1ccccc1)C(=O)N[C@@H](C[C@@H]1CCNC1=O)C(O)S(=O)(=O)[O-].[Na+] (some centres unmarked) [GC376] | 3.125 |
| CCC(CC)COC(=O)[C@H](C)N[P@](=O)(OC[C@H]1O[C@@](C#N)(c2ccc3c(N)ncnn23)[C@H](O)[C@@H]1O)Oc1ccccc1 [remdesivir] | 8.333 |

— patent US20250177469A1, “SANGUISORBA OFFICINALIS LINNE EXTRACT COMPOSITION INHIBITING 3CL PROTEASE AND RDRP ACTIVITY OF SARS-COV-2” (QGENETICS CO., LTD., priority 2021, published 2025)
